Key:
[1] = tested on: CMRF44Ab; test: ELISA binding of peptide phage clones to CMRF44Ab; settings: 12-mer phage libraries, confirmed by FACS blocking of CMRF44Ab binding to cell surface
Protocol: (§1) Peptide mimics were isolated from a phage display library using a library purchased from New England Biolabs called the PhD-12 Phage Display Peptide Library Kit (Cat No. #E8110S). The PhD-12 Phage Display Peptide Library Kit is based on a combinatorial library of random peptide 12-mers fused to a minor coat protein (pIII) of M13 phage. […] The library consists of ˜2.7×10^9 electroporated sequences, amplified once to yield ˜55 copies of each sequence in 10 μl of the supplied phage. The library is usually panned 3-4 times on the subject of study (usually antibody, but can use receptors, ligands etc.) with increasing stringency of washing at each step followed by analysis of individual clones for a consensus sequence binding to the test subject.
(§2) The consensus sequence of any peptides isolated from the library were be determined according to methods known to a person skilled in the art. ELISAs were then used to determine the binding of individual peptide phage clones or synthetic peptides (with or without repeats of the consensus sequence) to the original target (FIG. 1). Competitive binding assays were also used and analysed by FACS to determine true binding of the peptide sequences to the binding site of the target compared with the “natural” ligand or epitope (FIG. 2). Sequence analysis of the consensus sequence can determine what type of ligand is binding to the target or could give a true epitope, which may be used for database searches to find possible full-length sequences.
A consensus peptide sequence was identified for peptides which bind to CMRF44Ab from the 12-mer libraries using ELISA. Subsequent FACS analysis of phage peptide blocking of binding of CMRF44Ab to the cell surface also confirmed the peptide sequence. The peptide sequence appeared to be constrained to the N-terminus and the best sequence was AQKYQ (SEQ ID NO: 2) with apparent strong conservation at 1st, 3rd and 5th residues. A family of sequences were also identified and included ALKYQ (SEQ ID NO: 4), ALKEQ (SEQ ID NO: 5) and APKQQ (SEQ ID NO: 3). Further repeat panning of PhD-7 library was carried out to confirm the peptide sequence and identify other possible CMRF44 peptide antigen mimic sequences. […] Also, 3 rounds of repeat panning was carried out on combined 7-mer and 12-mer libraries (pooled together) with acid elution. Several clones sequences as well as pool of 3 round eluate. Results for CMRF-44 show an enrichment of the clone: ALKYQTGMPQSM (SEQ ID NO: 6) in both individual clones and the main strongest sequence in the pooled 3rd round eluate (FIG. 4).

[2] = tested on: CMRF44Ab; test: Repeat panning of combined 7-mer and 12-mer phage peptide libraries on CMRF44Ab, sequencing of 3rd round clones and pooled eluate; assay type: binding; settings: 3 rounds, combined 7-mer and 12-mer libraries, acid elution; individual clones and pooled 3rd round eluate (FIG. 4)
Text: FIG. 4 is a graphical representation of sequence results of 3rd round combined 7 and 12-mer phage peptide library panning (CMRF44Ab).
as §1
A consensus peptide sequence was identified for peptides which bind to CMRF44Ab from the 12-mer libraries using ELISA. Subsequent FACS analysis of phage peptide blocking of binding of CMRF44Ab to the cell surface also confirmed the peptide sequence. The peptide sequence appeared to be constrained to the N-terminus and the best sequence was AQKYQ (SEQ ID NO: 2) with apparent strong conservation at 1st, 3rd and 5th residues. […]

[3] = tested on: CMRF44Ab; test: FACS competitive binding: peptide blocking of CMRF44Ab binding to natural antigen on KM-H2 cells; assay type: cell-based; settings: 5-mer peptide alone, KM-H2 cells (FIG. 22)
Text: (§3) FIG. 22 is a graphical representation of FACS data showing binding of CMRF44Ab and scFv binding to KM-H2 cells and blocking of binding to natural antigen by competition with peptide mimic.
as §2

[4] = tested on: CMRF44 scFv; test: FACS competitive binding: peptide blocking of CMRF44 scFv binding to natural antigen on KM-H2 cells; assay type: cell-based; settings: 5-mer peptide alone, KM-H2 cells (FIG. 22)
Text: as §3, §2

Substance | consensus peptide sequence binding to CMRF44Ab [1] | enrichment of clone in panning [2] | blocking of CMRF44Ab [3] | blocking of the engineered CMRF44 scFv [4]
ALKYQ | identified | – | – | –
APKQQ | identified | – | – | –
ALKYQTGMPQSM [12-mer phage display peptide clone] | – | enrichment | – | –
AQKYQ | best sequence | – | blocking | blocking
ALKEQ | identified | – | – | –

Reference: US8895698B2, “Binding partners of antibodies specific for dendritic cell antigens” (The Corporation of the Trustees of the Order of the Sisters …, priority 2004, dated 2014)
